In patent publication US6387936B1 (Aventis Pharma S.A., priority 1998, dated 2002):
Several values for one entry are separate records, joined by “and”; a condition that tells them apart may be missing. Equal values may be shown once.

How the values were obtained:
[1] = system: parkinsonian marmosets (MPTP); test: Locomotory activity of MPTP-treated parkinsonian marmosets (image analyser, small/medium/large movements); format: in vivo, Callithrix jacchus; design: Locomotory activity, small movements / Locomotory activity, small movements, Average ± S.E.M. / Locomotory activity, medium movements / Locomotory activity, large movements / Time passed in moving, small movements: unit not given here; details: for Time passed in moving, large movements, Average ± S.E.M. / Time passed in moving, medium movements, Average ± S.E.M. / Time passed in moving, small movements, Average ± S.E.M. / Time passed in moving, small movements / Time passed in moving, medium movements / Time passed in moving, large movements: 30 min after 1st daily L-DOPA
Description: On day 32, the animals are divided into 2 groups. […] The locomotory activity is determined by placing the animals in test cages (50 cm×83 cm×77 cm) which are equipped with 3 […] onto which the animals can jump as well as a Plexiglas door in front of which is placed a camera. […] The image is digitalized with a 800×600 definition with 256 levels of grey and the changes in pixels from one image to another are counted. This allows the locomotory activity to be classified into small, medium or large movements. […] The locomotory activity of the animals is measured during the exploration phase, that is to say immediately after they are placed in the test cage.

[2] = system: parkinsonian marmosets (MPTP); test: Dyskinesic score in MPTP-treated marmosets under chronic L-DOPA; format: in vivo, Callithrix jacchus; design: Total dyskinesic score, individual values / Total dyskinesic score, Average ± S.E.M.: scale not given here; details: for Total dyskinesic score, Average ± S.E.M. / Total dyskinesic score, individual values: L-DOPA alone (Group 1 controls, sucrose); for Total dyskinesic score, individual values: marmosets 1-3
Description: The marmosets have free access to water and have available each day 35 g of food rich in carbohydrates, proteins and vitamins mixed with water, milk and sugar and also fresh fruit.
All the animals receive 3 injections of 2 mg/kg of MPTP by the subcutaneous route, on days 1, 7 and 32. On day 32, the animals are divided into 2 groups.
The dyskinesic score is determined according to a number of parameters and each with a different degree of intensity: […]

[3] = 30 min after the 1st administration of L-DOPA (25 mg/kg p.o.), Group 1, all intervals of 1 h
[4] = 30 min after the 1st administration of L-DOPA (25 mg/kg p.o.), Group 1 marmosets 1-3, interval 11-20 min
[5] = 30 min after the 1st administration of L-DOPA (25 mg/kg p.o.), Group 1 marmosets 1-3, interval 31-40 min
[6] = 30 min after the 1st administration of L-DOPA (25 mg/kg p.o.), Group 1 marmosets 1-3, interval 41-50 min
[7] = 30 min after the 1st administration of L-DOPA (25 mg/kg p.o.), Group 1 marmosets 1-3, interval 51-60 min
[8] = L-DOPA alone (Group 1, sucrose), 10 days after L-DOPA, in s (unit assumed)
[9] = L-DOPA alone (Group 1, sucrose), 20 days after L-DOPA, in s (unit assumed)
[10] = day 57 after 1st MPTP, 30 min after 1st daily L-DOPA
[11] = day 57 after 1st MPTP, 2 h after 1st daily L-DOPA
[12] = day 60 after 1st MPTP, 30 min after 1st daily L-DOPA
[13] = day 60 after 1st MPTP, 2 h after 1st daily L-DOPA
[14] = day 67 after 1st MPTP, 30 min after 1st daily L-DOPA
[15] = day 67 after 1st MPTP, 2 h after 1st daily L-DOPA
[16] = day 104 after 1st MPTP, 30 min after 1st daily L-DOPA
[17] = day 104 after 1st MPTP, 2 h after 1st daily L-DOPA
[18] = riluzole 2 × 10 mg/kg + L-DOPA (Group 2), 10 days after L-DOPA
[19] = riluzole 2 × 10 mg/kg + L-DOPA (Group 2), 10 days after L-DOPA, marmosets 4-6, interval 21-30 min, 10 mg/kg, in s (unit assumed)
[20] = riluzole 2 × 10 mg/kg + L-DOPA (Group 2), 10 days after L-DOPA, marmosets 4-6, interval 31-40 min, 10 mg/kg, in s (unit assumed)
[21] = riluzole 2 × 10 mg/kg + L-DOPA (Group 2), 10 days after L-DOPA, marmosets 4-6, interval 51-60 min, 10 mg/kg, in s (unit assumed)
[22] = riluzole 2 × 10 mg/kg + L-DOPA (Group 2), 20 days after L-DOPA, in s (unit assumed)
[23] = riluzole 2 × 10 mg/kg + L-DOPA (Group 2), 20 days after L-DOPA, marmosets 4-6, interval 1-10 min, 10 mg/kg, in s (unit assumed)

## N[C@@H](Cc1ccc(O)c(O)c1)C(=O)O [L-DOPA, 3-(3,4-dihydroxyphenyl)-L-alanine]
[1]; [3]
  Locomotory activity, large movements, Average ± S.E.M.: 334 + 23
  Locomotory activity, medium movements, Average ± S.E.M.: 226 ± 13
  Locomotory activity, small movements, Average ± S.E.M.: 40 ± 16
[1]; 30 min after the 1st administration of L-DOPA (25 mg/kg p.o.), Group 1 marmosets 1-3, interval 1-10 min
  Locomotory activity, medium movements: 250 and 235 and 270
[1]; [4]
  Locomotory activity, large movements: 350 and 385 and 275
  Locomotory activity, medium movements: 240 and 190 and 290
[1]; 30 min after the 1st administration of L-DOPA (25 mg/kg p.o.), Group 1 marmosets 1-3, interval 21-30 min
  Locomotory activity, large movements: 490 and 370 and 375
[1]; [5]
  Locomotory activity, large movements: 290 and 230 and 335
  Locomotory activity, medium movements: 255 and 355 and 205
[1]; [6]
  Locomotory activity, large movements: 425 and 295 and 420
  Locomotory activity, medium movements: 165 and 260
[1]; [7]
  Locomotory activity, large movements: 350 and 330 and 365
  Locomotory activity, medium movements: 215 and 240 and 200
  Locomotory activity, small movements: 35 and 30
[1]; L-DOPA after repeated treatment of 10 days and of 20 days
  Effect on locomotory activity (in words): does not have or has little beneficial effect on the locomotory activity
[1]; [8]
  Time passed in moving, large movements, Average ± S.E.M.: 171 ± 48
  Time passed in moving, medium movements, Average ± S.E.M.: 160 ± 23
  Time passed in moving, small movements, Average ± S.E.M.: 269 ± 47
[1]; L-DOPA alone (Group 1, sucrose), 10 days after L-DOPA, marmosets 1-3, interval 51-60 min
  Time passed in moving, small movements: 205 and 225 and 240
[1]; L-DOPA alone (Group 1, sucrose), 10 days after L-DOPA, marmosets 1-3, interval 51-60 min, in s (unit assumed)
  Time passed in moving, medium movements: 165 and 305 and 235
[1]; [9]
  Time passed in moving, large movements, Average ± S.E.M.: 283 ± 50
  Time passed in moving, medium movements, Average ± S.E.M.: 235 ± 37
  Time passed in moving, small movements, Average ± S.E.M.: 83 ± 19
[1]; acute administration of L-DOPA 25 mg/kg, 15 days after the 3rd injection of MPTP
  Effect on locomotory activity (in words): increases the locomotory activity by decreasing the small movements and increasing the large movements
[2]; [10]
  Total dyskinesic score, Average ± S.E.M.: 6.7 ± 2.1
  Total dyskinesic score, individual values: 4 and 11 and 5
[2]; [11]
  Total dyskinesic score, Average ± S.E.M.: 6.0 ± 2.1
  Total dyskinesic score, individual values: 3 and 10 and 5
[2]; [12]
  Total dyskinesic score, Average ± S.E.M.: 9.0 ± 2.5
  Total dyskinesic score, individual values: 4 and 11 and 12
[2]; [13]
  Total dyskinesic score, Average ± S.E.M.: 8.3 ± 2.32
  Total dyskinesic score, individual values: 4 and 9 and 12
[2]; [14]
  Total dyskinesic score, Average ± S.E.M.: 10 ± 3.0
  Total dyskinesic score, individual values: 4 and 14 and 12
[2]; [15]
  Total dyskinesic score, Average ± S.E.M.: 10 ± 3.0
  Total dyskinesic score, individual values: 4 and 13 (2×)
[2]; [16]
  Total dyskinesic score, Average ± S.E.M.: 11 ± 3.8
  Total dyskinesic score, individual values: 4 and 17 and 2
[2]; [17]
  Total dyskinesic score, Average ± S.E.M.: 11 ± 3.0
  Total dyskinesic score, individual values: 5 and 17 and 12
[2]; repeated L-DOPA 25 mg/kg oral, 3 times per day, days 57, 60, 67 and 104, maximum effect on day 104
  Dyskinesias (in words): produce dyskinesias

## Nc1nc2ccc(OC(F)(F)F)cc2s1 [riluzole, 2-amino-6-trifluoromethoxybenzo-thiazole]
[1]; riluzole 10 mg/kg oral, twice per day for 72 days, after 10 and 20 days of treatment with L-DOPA
  Effect on locomotory activity (in words): capable of improving the locomotory activity
[1]; [18]
  Time passed in moving, large movements, Average ± S.E.M.: 410 ± 25^+++
  Time passed in moving, small movements, Average ± S.E.M.: 57 ± 16^+++
[1]; riluzole 2 × 10 mg/kg + L-DOPA (Group 2), 10 days after L-DOPA, in s (unit assumed)
  Time passed in moving, medium movements, Average ± S.E.M.: 134 ± 13
[1]; riluzole 2 × 10 mg/kg + L-DOPA (Group 2), 10 days after L-DOPA, marmosets 4-6, interval 1-10 min
  Time passed in moving, small movements: 5
[1]; riluzole 2 × 10 mg/kg + L-DOPA (Group 2), 10 days after L-DOPA, marmosets 4-6, interval 1-10 min, 10 mg/kg, in s (unit assumed)
  Time passed in moving, large movements: 560 and 495 and 520
[1]; riluzole 2 × 10 mg/kg + L-DOPA (Group 2), 10 days after L-DOPA, marmosets 4-6, interval 11-20 min, 10 mg/kg, in s (unit assumed)
  Time passed in moving, large movements: 565 and 455 and 370
[1]; [19]
  Time passed in moving, large movements: 540 and 355 and 435
  Time passed in moving, medium movements: 60 and 120 and 115
[1]; [20]
  Time passed in moving, large movements: 460 and 240 and 385
  Time passed in moving, medium movements: 140 and 215 and 190
[1]; riluzole 2 × 10 mg/kg + L-DOPA (Group 2), 10 days after L-DOPA, marmosets 4-6, interval 41-50 min, 10 mg/kg, in s (unit assumed)
  Time passed in moving, medium movements: 155 and 205 and 175
[1]; [21]
  Time passed in moving, large movements: 430 and 265 and 310
  Time passed in moving, medium movements: 135 and 125 and 190
[1]; riluzole 2 × 10 mg/kg + L-DOPA (Group 2), 20 days after L-DOPA
  Time passed in moving, medium movements, Average ± S.E.M.: 148 ± 13^+
[1]; [22]
  Time passed in moving, large movements, Average ± S.E.M.: 365 ± 37
  Time passed in moving, small movements, Average ± S.E.M.: 67 ± 30
[1]; [23]
  Time passed in moving, large movements: 445 and 335 and 490
  Time passed in moving, medium movements: 155 and 140 and 80
[1]; riluzole 2 × 10 mg/kg + L-DOPA (Group 2), 20 days after L-DOPA, marmosets 4-6, interval 51-60 min, 10 mg/kg, in s (unit assumed)
  Time passed in moving, medium movements: 90 and 180 and 105
